In US9833497B2, “Human originated EGF domain proteins and use of the same” (CHENGDU SOURCEBIO LIMITED-LIABILITY COMPANY, priority 2013, dated 2017):

Tests used:
Assay type in all cases: cell-based
E. coli DH5α = assay: Antibacterial activity: MIC and growth curve against E. coli DH5α in 96-well plate; conditions: minimal inhibitory concentration against E. coli DH5α; 96-well plate, 5×10^5 CFU/mL, 37° C., judged after 8 h
How it was run: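 Log-phase bacteria (OD600 ~0.5) resuspended in LB at 5×10^5 CFU/mL, exposed to recombinant protein at 50, 25, 12.5 μg/mL final in triplicate, 37 °C shaking at 175 rpm. OD600 read every 30 min; MIC is lowest concentration showing no growth.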

E. coli BL21 = assay: MIC against Gram-negative bacteria: E. coli BL21; conditions: 96-well plate, 5×10^5 CFU/mL, 37° C., 10 h
How it was run: (§1)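 Broth microdilution, LB medium, final inoculum 5×10^5 CFU/mL from McFarland 0.5 cultures. Recombinant human EGF domain proteins tested in two-fold steps, n=3. MIC: lowest concentration, no growth.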

Moraxella catarrhalis = assay: MIC against Gram-negative bacteria: Moraxella catarrhalis; conditions: 96-well plate, 5×10^5 CFU/mL, 37° C., 10 h
How it was run: as §1

Klebsiella pneumonia = assay: MIC against Gram-negative bacteria: Klebsiella pneumonia; conditions: 96-well plate, 5×10^5 CFU/mL, 37° C., 10 h
How it was run: as §1

Pseudomonas aeruginosa = assay: MIC against Gram-negative bacteria: Pseudomonas aeruginosa; conditions: 96-well plate, 5×10^5 CFU/mL, 37° C., 10 h
How it was run: as §1

Serratia marcescens = assay: MIC against Gram-negative bacteria: Serratia marcescens; conditions: 96-well plate, 5×10^5 CFU/mL, 37° C., 10 h
How it was run: as §1

Citrobacter diversus = assay: MIC against Gram-negative bacteria: Citrobacter diversus; conditions: 96-well plate, 5×10^5 CFU/mL, 37° C., 10 h
How it was run: as §1

Proteus mirabilis = assay: MIC against Gram-negative bacteria: Proteus mirabilis; conditions: 96-well plate, 5×10^5 CFU/mL, 37° C., 10 h
How it was run: as §1

Aeromonas hydrophila = assay: MIC against Gram-negative bacteria: Aeromonas hydrophila; conditions: 96-well plate, 5×10^5 CFU/mL, 37° C., 10 h
How it was run: as §1

Enterobacter cloacae = assay: MIC against Gram-negative bacteria: Enterobacter cloacae; conditions: 96-well plate, 5×10^5 CFU/mL, 37° C., 10 h
How it was run: as §1

Proteus vulgaris = assay: MIC against Gram-negative bacteria: Proteus vulgaris; conditions: 96-well plate, 5×10^5 CFU/mL, 37° C., 10 h
How it was run: as §1

For “PRT93 (PLLHCAPGFCFPGVACIQTESGARCGPCPAGFTGNGSHCT; listed as Homo sapiens)”, the MIC (E. coli DH5α) was 50 µg/mL, the “MIC (μg/mL) E. coli BL21” value (E. coli BL21; E. coli BL21) was 12.5 µg/mL and the “MIC (μg/mL) M. catarrhalis” value (Moraxella catarrhalis; Moraxella catarrhalis) was 25 µg/mL. The “MIC (μg/mL) K. pneumonia” value (Klebsiella pneumonia; Klebsiella pneumonia) was 12.5 µg/mL, the “MIC (μg/mL) P. aeruginosa” value (Pseudomonas aeruginosa; Pseudomonas aeruginosa) was 50 µg/mL and the “MIC (μg/mL) S. marcescens” value (Serratia marcescens; Serratia marcescens) was 12.5 µg/mL. For the same substance, the “MIC (μg/mL) C. diversus” value (Citrobacter diversus; Citrobacter diversus) was 100 µg/mL, the “MIC (μg/mL) P. mirabilis” value (Proteus mirabilis; Proteus mirabilis) was 12.5 µg/mL and the “MIC (μg/mL) A. hydrophila” value (Aeromonas hydrophila; Aeromonas hydrophila) was 25 µg/mL. The “MIC (μg/mL) E. cloacae” value (Enterobacter cloacae; Enterobacter cloacae) was 12.5 µg/mL and the “MIC (μg/mL) P. vulgaris” value (Proteus vulgaris; Proteus vulgaris) was 12.5 µg/mL.
“PRT100 (DVNECTSGQNPCHSSTHCLNNVGSYQCRCRPGWQPIPGSPNGPNNTVCE; listed as Homo sapiens)” was tested, and the MIC (E. coli DH5α) was 12.5 µg/mL, the “MIC (μg/mL) E. coli BL21” value (E. coli BL21; E. coli BL21) was 12.5 µg/mL and the “MIC (μg/mL) M. catarrhalis” value (Moraxella catarrhalis; Moraxella catarrhalis) was 12.5 µg/mL. For the same substance, the “MIC (μg/mL) K. pneumonia” value (Klebsiella pneumonia; Klebsiella pneumonia) was 12.5 µg/mL, the “MIC (μg/mL) P. aeruginosa” value (Pseudomonas aeruginosa; Pseudomonas aeruginosa) was 12.5 µg/mL and the “MIC (μg/mL) S. marcescens” value (Serratia marcescens; Serratia marcescens) was 12.5 µg/mL. The “MIC (μg/mL) C. diversus” value (Citrobacter diversus; Citrobacter diversus) was 12.5 µg/mL, the “MIC (μg/mL) P. mirabilis” value (Proteus mirabilis; Proteus mirabilis) was 12.5 µg/mL and the “MIC (μg/mL) A. hydrophila” value (Aeromonas hydrophila; Aeromonas hydrophila) was 12.5 µg/mL. The “MIC (μg/mL) E. cloacae” value (Enterobacter cloacae; Enterobacter cloacae) was 12.5 µg/mL and the “MIC (μg/mL) P. vulgaris” value (Proteus vulgaris; Proteus vulgaris) was 25 µg/mL.
For “PRT1306 (CSLLCLPKANNSRSCRCPEDVSSSVLPSGDLMCDCPQGYQLKNNTCV; listed as Homo sapiens)”, the MIC (E. coli DH5α) was 25 µg/mL, the “MIC against E. coli BL21” value (E. coli BL21; E. coli BL21) was 50 µg/mL and the “MIC against M. catarrhalis” value (Moraxella catarrhalis; Moraxella catarrhalis) was 25 µg/mL. The “MIC against K. pneumonia” value (Klebsiella pneumonia; Klebsiella pneumonia) was 50 µg/mL, the “MIC against P. aeruginosa” value (Pseudomonas aeruginosa; Pseudomonas aeruginosa) was 12.5 µg/mL and the “MIC against S. marcescens” value (Serratia marcescens; Serratia marcescens) was 50 µg/mL. The “MIC against C. diversus” value (Citrobacter diversus; Citrobacter diversus) was 50 µg/mL, the “MIC against P. mirabilis” value (Proteus mirabilis; Proteus mirabilis) was 12.5 µg/mL and the “MIC against A. hydrophila” value (Aeromonas hydrophila; Aeromonas hydrophila) was 25 µg/mL. The “MIC against E. cloacae” value (Enterobacter cloacae; Enterobacter cloacae) was 12.5 µg/mL and the “MIC against P. vulgaris” value (Proteus vulgaris; Proteus vulgaris) was 25 µg/mL.
“PRT736 (DVNECAEEGYCSQGCTNSEGAFQCWCETGYELRPDRRSCK; listed as Homo sapiens)” was tested, and the MIC (E. coli DH5α) was 12.5 µg/mL, the “MIC E. coli BL21” value (E. coli BL21) was 25 µg/mL and the “MIC M. catarrhalis” value (Moraxella catarrhalis) was 25 µg/mL. The “MIC K. pneumonia” value (Klebsiella pneumonia) was 50 µg/mL, the “MIC P. aeruginosa” value (Pseudomonas aeruginosa) was 50 µg/mL and the “MIC S. marcescens” value (Serratia marcescens) was 50 µg/mL. The “MIC C. diversus” value (Citrobacter diversus) was 12.5 µg/mL, the “MIC P. mirabilis” value (Proteus mirabilis) was 12.5 µg/mL and the “MIC A. hydrophila” value (Aeromonas hydrophila) was 25 µg/mL. For the same substance, the “MIC E. cloacae” value (Enterobacter cloacae) was 50 µg/mL and the “MIC P. vulgaris” value (Proteus vulgaris) was 25 µg/mL.
“PRT537 (CDCNGNSNECLDGSGYCVHCQRNTTGEHCEKCLDGYIGDSIRGAPQFCQP; listed as Homo sapiens)” was tested, and the MIC (E. coli DH5α) was 50 µg/mL, the “MIC against E. coli BL21” value (E. coli BL21) was 25 µg/mL and the “MIC against M. catarrhalis” value (Moraxella catarrhalis) was 25 µg/mL. For the same substance, the “MIC against K. pneumonia” value (Klebsiella pneumonia) was 25 µg/mL, the “MIC against P. aeruginosa” value (Pseudomonas aeruginosa) was 12.5 µg/mL and the “MIC against S. marcescens” value (Serratia marcescens) was 12.5 µg/mL. For the same substance, the “MIC against C. diversus” value (Citrobacter diversus) was 12.5 µg/mL, the “MIC against P. mirabilis” value (Proteus mirabilis) was 12.5 µg/mL and the “MIC against A. hydrophila” value (Aeromonas hydrophila) was 25 µg/mL. The “MIC against E. cloacae” value (Enterobacter cloacae) was 50 µg/mL and the “MIC against P. vulgaris” value (Proteus vulgaris) was 25 µg/mL.
